# Experimental data published in US11655308B2, “HM-3 fusion protein and application thereof” (TASLY BIOPHARMACEUTICALS CO., LTD., priority 2017, dated 2023).
# Read-outs that look alike come from different tables or passages of the source. No end group written: not given here.
# B1: HM-3-(GGGGS)3-IgG2-Fc (protein)
# chain: IVRRADRAAVPGGGGRGDGGGGSGGGGSGGGGSERKCCVECPPCPAPPVAGPSVFLFPPKPKDTLMISRTPEVTCVVVDVSHEDPEVQFNWYVDGVEVHNAKTKPREEQFNSTFRVVSVLTVVHQDWLNGKEYKCKVSNKGLPAPIEKTISKTKGQPREPQVYTLPPSREEMTKNQVSLTCLVKGFYPSDISVEWESNGQPENNYKTTPPMLDSDGSFFLYSKLTVDKSRWQQGNVFSCSVMHEALHNHYTQKSLSLSPGK
# Assays:
# Rat chondrocyte = test system: Rat chondrocyte
# Protocol: Chondrocytes were cultured in a T75 flask for 3-4 days. When the degree of fusion reached 80%, the original culture medium was removed, and sterile PBS was added to clean the cells for 2-3 times, then a proper amount of digestive juice was added, and a fresh culture medium was added after the cells were detached. Cells were centrifuged to remove the cell sap containing the digestive juice, and a proper amount of fresh culture medium was added to be prepared into a cell suspension with appropriate concentration for cell subculture or cell experiments. Cell subculture began from generation P1 and ended till generation P5, and there were cryopreserved cells in each generation. Cells were used for the experiment when subcultured to P2-P5.
# According to the inoculum size of 200 μL/well, the cell suspension with the density of 2.5*10^4/mL was inoculated onto a 96-well cell culture plate, and 3 groups were prepared in total, one for control group, and the other two groups were stimulated by hydrogen peroxide. A cell-free medium was prepared as a blank group. There were 4-5 sub-wells prepared in each group. The cell culture plate was put to an incubator for incubation for 24 hours. The culture medium was replaced to different experimental groups in the following day with a dose volume of 100 μl and incubated for 24 or 48 hours respectively.
# At the end of incubation according to the experimental plan, 10 μL of 5 mg/ml MTT was added to each experimental group based upon 1/10 of the cell culture volume, so that the cells were incubated with MTT in the incubator for 4 hours. Afterwards, supernatant was carefully discarded, and 200 μL of dimethyl sulfoxide (DMSO) was added for mixing well, then the absorbance was measured on a microplate reader at a test wavelength of 570 nm. Calculating formula of relative cell activity ratio (%): a mean value of the absorbance (per well) in the experimental group/the absorbance in the control group multiplies by 100%. All experimental groups were expressed as mean±standard deviation (X±SD). The difference between each group was analyzed by Prism 7.0, and tested by one-way ANOVA. *P<0.05 means statistical difference, **P<0.01 means significant statistical difference, and […] means extremely significant statistical difference.
# The experimental concentration of hydrogen peroxide ranged within 0.01, 0.1, 0.5, 1, 10 mM. In order to determine the H2O2 molding time and dosage, three molding time points at 24 hours, 48 hours and 72 hours were selected, and two detection wells were prepared in total for each dosage of hydrogen peroxide.
# type-II CIA mice = assay: Chronic inflammation model of type-II CIA in mice; assay type: in vivo, Balb/c mice; conditions: for ankle width / arthritis scoring / paw circumference / weight of mice / spleen weight: day 60; for ankle width: model G2 4.83±0.20; for arthritis scoring: model G2 11.5±1.7; for paw circumference: model G2 13.62; for weight of mice: model G2 19.5±1.6; for spleen weight: model G2 114.6±14.5
# Protocol: Experimental method: Balb/c mice were taken and immunized for the first time. The concentration of type-II bovine collagen was 4 mg/mL. On the day of the experiment (day 0), complete Freund's adjuvant (CFA) and CII solution were mixed evenly in equal volume and emulsified. Excepting for the normal control group of Balb/c mice, mice in each group were sensitized by intracutaneous injection of 50 μL emulsifier at the end of tails. 21 days later, mice were re-immunized with the same dose of emulsifier at the end of tails, and incomplete Freund's adjuvant (IFA) served as an adjuvant at this time. Redness and swelling other arthritic symptoms appeared on toe joints of mice models approximately on the 29th day of the experiment, indicating successful modeling.
# Animals in the modeling group on the 30th day of the experiment were randomly divided into:
# There were 12 groups in total, and there were 8 pieces of mice in remaining each group excepting for 12 pieces in G1 (normal control group) and G2 (model group).
# Measurement of mice weight: mice were weighed by an electronic balance every two days.
# Measurement of sole thickness: the thickness of left, right and hind soles for each mouse was measured by a vernier caliper every two days.
# Measurement of ankle joint width: the width of left and right ankle joints for each mouse was measured by vernier caliper every two days.
# Arthritis index (AI) score: the severity of arthritis for each mouse was evaluated by a paw joint scoring method. 0: no redness and swelling; 1: redness and swelling of little toe joints; 2: redness and swelling of toe joints and toes; 3: redness and swelling of the portion below ankle joints; 4: redness and swelling of toe joints, toes and ankle joints. Scoring was performed once every two days until the end of the experiment.
# Blood was collected from the orbit and serum was separated. After mice were killed by cervical dislocation, spleen and thymus were separated and weighed to calculate a spleen coefficient, and then the spleen and thymus were fixed in formalin stationary liquid.
# [1] = test system: mice splenic lymphocyte proliferation stimulated by ConA; assay type: cell-based; conditions: for optimal (best) inhibition rate of splenic lymphocyte proliferation: ConA 5 μg/mL, 48 h, MTT, best of the tested concentrations; for inhibition rate / in vitro efficacy compared with TSL-4 control group: control: TSL-4 (P4 positive control, 12 μmol/L)
# Protocol: Experimental method: mice orbit was by bloodletting to death, and immediately immersed in 75% ethanol for 5-10 min, and then the spleen was removed on a clean bench and placed in PBS. The spleen was placed on a sterile cell strainer (200 mesh) and ground with a syringe nozzle; during grinding process, PBS was added continuously; the slurry was collected and centrifuged (1000 rpm for 5 min), then cells were washed 3 times with Tris-ammonium chloride solution, and washed again with a medium, and then re-suspended in the medium. Finally, trypan blue living cell staining was performed on the cells, and the survival rate was more than 95%. The concentration of viable cells was adjusted to 2×10^6/mL. […] was added to each well of a 96-well plate, meanwhile, ConA (concanavalin to simulate splenocyte proliferation) and drugs were added to each well. Six duplicates were set in each group.
# The 96-well plate was incubated for 48 h in a 5% CO2 incubator at 37° C. 5 mg/mL of MTT was added to the 96-well plate, 20 μL for each well, and then it was incubated continuously for 4 h in the incubator. The culture medium in the 96-well plate was discarded and 100 μL DMSO was added to each well and mixed gently. Absorbance was measured by a microplate reader at the wavelength of 570 nm and reference wavelength of 630 nm.
# Proliferation inhibition rate (PI) was calculated according to formula:
# [formula] wherein, Atest is the absorbance of dosing group, and Acontrol is the absorbance of negative control. Test results were expressed as mean±SD, and statistical T test was performed. *P<0.05 indicates significant difference, **P<0.01 indicates extremely significant difference. Based upon the results, the efficacy of the fusion protein against rheumatoid arthritis was screened.
# In the P4 control group, TSL-4 fusion protein served as a control agent.
# [2] = test system: transgenic blood vessel fluorescent zebrafish; assay: In vivo anti-angiogenesis in zebrafish (SIVs area); set-up: area of SIVs: unit not given here; conditions: for inhibiting effect on angiogenesis: 20 ng/tail; for inhibition rate of angiogenesis / area of SIVs: 24 h; for area of SIVs: normal control group 53193
# Protocol: Experimental method: transgenic blood vessel fluorescent zebrafish was randomly selected and put into a six-well plate with 30 fish per well, and intravenously injected HM-3 polypeptide, TSL-1 fusion protein, TSL-2 fusion protein, TSL-3 fusion protein and TSL-4 fusion protein respectively in accordance with the dosage of 20 ng/tail and 66 ng/tail; the dosage was […] in Avastin positive control and the injection volume was 20 nL/tail; the zebrafish injected 20 nL/tail of buffer solution served as a solvent control group, and the zebrafish without any treatment served as a normal control group. 10 pieces of zebrafish were randomly selected from each group after processed for 24 h to observe the intestinal vessels of the transgenic zebrafish by a fluorescence microscope, as well as to take and maintain images. Image analysis was performed by Nikon MS-Elements D 3.10 to calculate the area (S) of SIVs (subintestinal vessel, SIV). The calculation formula of angiogenesis inhibition rate was as follows: Angiogenesis inhibition rate (%)=(1−S(Test sample group)/S(Normal control group))×100%
# Statistical analysis was performed by variance analysis and Dunnett's T-test and the results were expressed as Mean±SD, where p<0.05 indicates a significant difference.
# human macrophage U937 = assay: TNF-α production by LPS-induced human macrophage U937 (ELISA); assay type: cell-based; conditions: LPS 1 μg/mL, 48 h, negative group 77.6±19.6
# Protocol: Experimental method: Human macrophage U937 was cultured in RPMI-1640 medium containing 10% fetal bovine serum and double antibodies in a constant temperature incubator at 37° C. under the condition of 5% CO2, and the medium was replaced every 2 days. U937 cells in the logarithmic phase were collected, resuspended and adjusted to the concentration of 5×10^5/mL. 100 μL of cells was added to each well of a 96-well plate overnight and induced with LPS (1 μg/mL) in the following day, where n=3. At the same time, the cells were treated with agents, and respectively divided into a positive control group adalimumab, an HM-3 polypeptide group, an mPEG-SC-HM-3 polypeptide group, an HM-3 fusion protein (TSL-1, TSL-2, TSL-3, TSL-4) group, and the specific dosing scheme was shown in Table 5.
# 48 h after the agents worked, culture medium was collected and centrifuged, and supernatant was taken to measure the content of TNF-α therein by ELISA. Test results were expressed as mean±SD, and statistical T test was performed. *P<0.05 indicates significant difference, **P<0.01 indicates extremely significant difference. Based upon the results, the efficacy of the HM-3 fusion protein against rheumatoid arthritis was screened.
# [3] = G3 Adalimumab 8 mg/kg SC 1 time/14 d, 1 time
# [4] = G4 HM-3 1.6 mg/kg IV 2 times/d, 30 times
molecule,measurement,setting,value
"OO [H2O2, hydrogen peroxide]",MTT test value,"Rat chondrocyte; 0.01 mM H2O2, 24 h, 0 mM 2.35",2.51
same,MTT test value,"Rat chondrocyte; 0.01 mM H2O2, 48 h, 0 mM 2.24",2.1
same,MTT test value,"Rat chondrocyte; 0.01 mM H2O2, 72 h, 0 mM 1.94",1.99
same,MTT test value,"Rat chondrocyte; 0.1 mM H2O2, 24 h, 0 mM 2.35",2.29
same,MTT test value,"Rat chondrocyte; 0.1 mM H2O2, 48 h, 0 mM 2.24",2.08
same,MTT test value,"Rat chondrocyte; 0.1 mM H2O2, 72 h, 0 mM 1.94",1.92
same,MTT test value,"Rat chondrocyte; 1 mM H2O2, 24 h, 0 mM 2.35",1.28
same,MTT test value,"Rat chondrocyte; 1 mM H2O2, 48 h, 0 mM 2.24",1.47
same,MTT test value,"Rat chondrocyte; 1 mM H2O2, 72 h, 0 mM 1.94",0.81
same,MTT test value,"Rat chondrocyte; 10 mM H2O2, 24 h, 0 mM 2.35",0.06
same,MTT test value,"Rat chondrocyte; 10 mM H2O2, 48 h, 0 mM 2.24",0.56
same,MTT test value,"Rat chondrocyte; 10 mM H2O2, 72 h, 0 mM 1.94",−0.07
Adalimumab [reference compound],ankle width,type-II CIA mice; [3],4.23±0.08 mm
same,arthritis scoring,type-II CIA mice; [3],7.6±0.9
same,paw circumference,type-II CIA mice; [3],11.42±0.20 mm
same,weight of mice,type-II CIA mice; [3],21.0 ± 1.5 g
same,spleen weight,type-II CIA mice; [3],94.6 ± 6.7 mg
HM-3-(GGGGS)3-mIgG4-Fc [TSL-2],optimal (best) inhibition rate of splenic lymphocyte proliferation,[1],34.1%
same,inhibiting effect on angiogenesis,[2],significant inhibitory effect
same,inhibition rate of angiogenesis,[2]; 20 ng/tail iv,19%
same,area of SIVs,[2]; 20 ng/tail iv,42828
same,inhibition rate of angiogenesis,[2]; 66 ng/tail iv,39%
same,area of SIVs,[2]; 66 ng/tail iv,32374
HM-3-HyFc [TSL-14],inhibition rate / in vitro efficacy compared with TSL-4 control group,[1],Significantly lower
HyFc-(GGGGS)3-HM-3 [TSL-16],inhibition rate / in vitro efficacy compared with TSL-4 control group,[1],Significantly lower
"IVRRADRAAVPGGGGRGD [HM-3, Ile-Val-Arg-Arg-Ala-Asp-Arg-Ala-Ala-Val-Pro-Gly-Gly-Gly-Gly-Arg-Gly-Asp]",TNF-α content in cell supernatant,human macrophage U937; high-dosage (Table 5: 18 μmol/L),58.9 ± 10.6 pg/mL
same,TNF-α content in cell supernatant,human macrophage U937; low-dosage (Table 5: 9 μmol/L),83.9 ± 20.4 pg/mL
same,inhibiting effect on angiogenesis,[2],no inhibiting effect
same,inhibition rate of angiogenesis,[2]; 20 ng/tail iv,2%
same,area of SIVs,[2]; 20 ng/tail iv,52186
same,inhibition rate of angiogenesis,[2]; 66 ng/tail iv,20%
same,area of SIVs,[2]; 66 ng/tail iv,42492
same,ankle width,type-II CIA mice; [4],4.21±0.15 mm
same,arthritis scoring,type-II CIA mice; [4],7.8±1.4
same,paw circumference,type-II CIA mice; [4],11.41±0.53 mm
same,weight of mice,type-II CIA mice; [4],20.9 ± 1.5 g
same,spleen weight,type-II CIA mice; [4],94.2 ± 13.3 mg
same,therapeutic effect compared with group G3 (positive Adalimumab group),"type-II CIA mice; groups G4 (HM-3), G10 (TSL-4 12.5 mg/kg once for 5 days, 3 times)",slightly lower than that of the group G3
B1,optimal (best) inhibition rate of splenic lymphocyte proliferation,[1],39.6%
same,inhibiting effect on angiogenesis,[2],significant inhibitory effect
same,inhibition rate of angiogenesis,[2]; 20 ng/tail iv,25%
same,area of SIVs,[2]; 20 ng/tail iv,39929
same,inhibition rate of angiogenesis,[2]; 66 ng/tail iv,30%
same,area of SIVs,[2]; 66 ng/tail iv,37022
